Assay results as given in patent US20070004639A1, “Methods and compositions for treating Parkinson's disease” (BodyBio, Inc., priority 2005, published 2007).
Like-named read-outs stand apart in the source and are kept apart here.

How the values were obtained:
Parkinson's Disease [1] = experiment: Parkinson's patients case studies (oral nutrients plus IV infusions)
Parkinson's Disease [2] = details: 800 mild, early Parkinson's Disease patients; cited from earlier work
Parkinson's Disease [3] = details: in vivo; cited from earlier work
Parkinson's Disease [4] = details: after five years; cited from earlier work
Parkinson's Disease [5] = details: cited from earlier work
[6] = system: mouse model of Bulbar ALS; details: oral administration; cited from earlier work
Parkinson's Disease [7] = details: human, in vivo; cited from earlier work
[8] = cited from earlier work
Parkinson's Disease [9] = details: in vivo; cited from earlier work; remark: listed apart in the source
[10] = in vivo; cited from earlier work

N[C@@H](CCC(=O)N[C@@H](CS)C(=O)NCC(=O)O)C(=O)O [Glutathione, N—(N-L-gamma-glutamyl-L-cysteinyl)glycine]
tremor (Parkinson's Disease [1]; Case Study 1, IV Glutathione push once weekly, after 6 months): slightly improved

C#CCN(C)[C@H](C)Cc1ccccc1 [Selegiline]
delay of the progression of motor symptoms (Parkinson's Disease [2]): about nine

N[C@@H](Cc1ccc(O)c(O)c1)C(=O)O [levodopa, Levodopa]
tolerance of drug by patient (Parkinson's Disease [1]; Case Study 6, before protocol): intolerant

CCCN[C@H]1CCc2nc(N)sc2C1 [pramipexole]
patients completely free from motor complications (Parkinson's Disease [3]): 72% | patients in whom dyskinesias developed (Parkinson's Disease [3]): 10% | patients who developed motor complications (Parkinson's Disease [3]): 28%

CCCN(CCC)CCc1cccc2c1CC(=O)N2 [ropinerole]
patients who developed dyskinesia (Parkinson's Disease [4]): 20% | severe form among those who developed dyskinesia (Parkinson's Disease [4]): 8% | effectiveness in comparison (Parkinson's Disease [5]; early stage Parkinson's Disease, versus levodopa): as effective as levodopa | effectiveness in comparison (Parkinson's Disease [5]; versus bromocriptine (Parlodel)): more effective than bromocriptine

CCCC(=O)[O-].[Na+] [sodium butyrate]
neurological phenotypes [6]: successfully ameliorated

Cc1ccc(C(=O)c2cc(O)c(O)c([N+](=O)[O-])c2)cc1 [tolcapone]
deaths from liver failure (Parkinson's Disease [7]): three

Phosphatidylcholine [PC]
oral absorption ([8]; taken orally with meals): up to 90 % per 24 hrs | time over which blood levels peak ([8]; taken orally): 8 to 12 h

botulinum toxin
effect on tremors (Parkinson's Disease [9]): without any substantial reduction in tremors

carbidopa/levodopa
half-life compared with dopamine agonists [10]: shorter half-life
